From ChEMBL document CHEMBL1201862, “PubChem BioAssay data set” (2004)
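Five compound concentrations were applied to cells in 96-well plates for 48 hours; endpoints were derived by simple linear interpolation of the resulting dose-response curve. Here, GI50 denotes the concentration required for 50% inhibition of growth.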 Active and inactive are the calls of the source. Rule as the data show it: active = GI50 up to about 1.1 µM and inactive = higher.

What was measured:
Assay in all cases: inhibition of tumour cell growth, NCI panel, 48 h
T47D = tested on: T47D
U-251 = tested on: U-251
A549 = tested on: A549
SR = tested on: SR
RPMI-8226 = tested on: RPMI-8226
UACC-62 = tested on: UACC-62
SK-MEL-5 = tested on: SK-MEL-5
NCI-H522 = tested on: NCI-H522
HT-29 = tested on: HT-29
MDA-MB-435 = tested on: MDA-MB-435
HCT-116 = tested on: HCT-116
LOX IMVI = tested on: LOX IMVI
UACC-257 = tested on: UACC-257
MCF7 = tested on: MCF7
EKVX = tested on: EKVX
K562 = tested on: K562
M14 = tested on: M14
ACHN = tested on: ACHN
SF-295 = tested on: SF-295
NCI-H226 = tested on: NCI-H226
SW-620 = tested on: SW-620
OVCAR-3 = tested on: OVCAR-3
IGROV-1 = tested on: IGROV-1
SNB-19 = tested on: SNB-19
786-0 = tested on: 786-0
HOP-92 = tested on: HOP-92
NCI-H23 = tested on: NCI-H23
A498 = tested on: A498
OVCAR-8 = tested on: OVCAR-8
SK-MEL-2 = tested on: SK-MEL-2
SF-268 = tested on: SF-268
NCI/ADR-RES = tested on: NCI/ADR-RES
HCT-15 = tested on: HCT-15
CAKI-1 = tested on: CAKI-1
Malme-3M = tested on: Malme-3M
DU-145 = tested on: DU-145
MDA-MB-231 = tested on: MDA-MB-231
MOLT-4 = tested on: MOLT-4
SK-OV-3 = tested on: SK-OV-3
Hs-578T = tested on: Hs-578T
BT-549 = tested on: BT-549
SK-MEL-28 = tested on: SK-MEL-28
RXF 393 = tested on: RXF 393
HCC 2998 = tested on: HCC 2998
SN12C = tested on: SN12C
PC-3 = tested on: PC-3
KM12 = tested on: KM12
COLO 205 = tested on: COLO 205
TK-10 = tested on: TK-10
NCI-H460 = tested on: NCI-H460
MDA-N = tested on: MDA-N
HL-60 = tested on: HL-60
UO-31 = tested on: UO-31
OVCAR-4 = tested on: OVCAR-4
CCRF-CEM = tested on: CCRF-CEM
HOP-62 = tested on: HOP-62
SF-539 = tested on: SF-539
OVCAR-5 = tested on: OVCAR-5
SNB-75 = tested on: SNB-75

`COc1ccc(/C=C2\CN(C)CC3C2=NC(=S)NC3c2ccc(OC)cc2)cc1` (configuration not stated) was tested, and the GI50 (T47D) was 4.11 µM (inactive), the GI50 (U-251) was 8.55 µM (inactive) and the GI50 (A549) was 4 µM (inactive). For the same compound, the GI50 (SR) was 0.865 µM (active), the GI50 (RPMI-8226) was 2.99 µM (inactive) and the GI50 (UACC-62) was 4.58 µM (inactive). The GI50 (SK-MEL-5) was 4.24 µM (inactive), the GI50 (NCI-H522) was 1.63 µM (inactive) and the GI50 (HT-29) was 3.51 µM (inactive). For the same compound, the GI50 (MDA-MB-435) was 1.33 µM (inactive), the GI50 (HCT-116) was 3.43 µM (inactive) and the GI50 (LOX IMVI) was 4.76 µM (inactive). For the same compound, the GI50 (UACC-257) was 4.82 µM (inactive), the GI50 (MCF7) was 2.82 µM (inactive) and the GI50 (EKVX) was 11.5 µM (inactive). The GI50 (K562) was 3.95 µM (inactive), the GI50 (M14) was 2.77 µM (inactive) and the GI50 (ACHN) was 5.73 µM (inactive). For the same compound, the GI50 (SF-295) was 3.69 µM (inactive), the GI50 (NCI-H226) was 41.5 µM (inactive) and the GI50 (SW-620) was 6.05 µM (inactive). The GI50 (OVCAR-3) was 1.98 µM (inactive), the GI50 (IGROV-1) was 2.98 µM (inactive) and the GI50 (SNB-19) was 5.66 µM (inactive). For the same compound, the GI50 (786-0) was 3.66 µM (inactive), the GI50 (HOP-92) was 3.21 µM (inactive) and the GI50 (NCI-H23) was 7.96 µM (inactive). The GI50 (A498) was 3.27 µM (inactive), the GI50 (OVCAR-8) was 7.8 µM (inactive) and the GI50 (SK-MEL-2) was 13.9 µM (inactive). The GI50 (SF-268) was 5.64 µM (inactive), the GI50 (NCI/ADR-RES) was 2.55 µM (inactive) and the GI50 (HCT-15) was 3.46 µM. For the same compound, the GI50 (CAKI-1) was 6.64 µM (inactive), the GI50 (Malme-3M) was 2.99 µM (inactive) and the GI50 (DU-145) was 4.68 µM (inactive). The GI50 (MDA-MB-231) was 13.3 µM (inactive), the GI50 (MOLT-4) was 2.9 µM (inactive) and the GI50 (SK-OV-3) was 5.66 µM (inactive). For the same compound, the GI50 (Hs-578T) was 52.7 µM (inactive), the GI50 (BT-549) was 7.6 µM (inactive) and the GI50 (SK-MEL-28) was > 66.7 µM (inactive). The GI50 (RXF 393) was 2.17 µM (inactive), the GI50 (HCC 2998) was 6.75 µM (inactive) and the GI50 (SN12C) was 6.81 µM (inactive). The GI50 (PC-3) was 6.21 µM (inactive), the GI50 (KM12) was 2.97 µM (inactive) and the GI50 (COLO 205) was 3.67 µM (inactive). For the same compound, the GI50 (TK-10) was 27.2 µM (inactive), the GI50 (NCI-H460) was 2.8 µM (inactive) and the GI50 (MDA-N) was 1.08 µM (active). The GI50 (HL-60) was 2.19 µM (inactive), the GI50 (UO-31) was 4.95 µM (inactive) and the GI50 (OVCAR-4) was 4.92 µM (inactive). For the same compound, the GI50 (CCRF-CEM) was 8.13 µM (inactive), the GI50 (HOP-62) was 6.46 µM (inactive) and the GI50 (SF-539) was 7.11 µM (inactive). For the same compound, the GI50 (OVCAR-5) was 19.3 µM (inactive).

In the case of `NCC(O)CNCC/C=C\C/C=C\C/C=C\C/C=C\C/C=C\C/C=C\CCCCC/C=C\CCNCC(O)CN` (configuration not stated), the GI50 (T47D) is reported as 2 µM (inactive), the GI50 (U-251) is reported as 1.72 µM (inactive) and the GI50 (A549) is reported as 1.85 µM (inactive). The GI50 (SR) was 0.435 µM (active), the GI50 (RPMI-8226) was 1.66 µM (inactive) and the GI50 (UACC-62) was 1.79 µM (inactive). For the same compound, the GI50 (NCI-H522) was 1.53 µM (inactive), the GI50 (HT-29) was 1.75 µM (inactive) and the GI50 (MDA-MB-435) was 1.65 µM (inactive). For the same compound, the GI50 (HCT-116) was 1.78 µM (inactive), the GI50 (LOX IMVI) was 1.79 µM (inactive) and the GI50 (UACC-257) was 2.13 µM (inactive). For the same compound, the GI50 (MCF7) was 2.15 µM (inactive), the GI50 (SNB-75) was 1.73 µM (inactive) and the GI50 (EKVX) was 0.731 µM (active). For the same compound, the GI50 (K562) was 2.29 µM (inactive), the GI50 (M14) was 1.94 µM (inactive) and the GI50 (ACHN) was 1.8 µM (inactive). For the same compound, the GI50 (SF-295) was 2.07 µM (inactive), the GI50 (NCI-H226) was 2.64 µM (inactive) and the GI50 (SW-620) was 1.78 µM (inactive). The GI50 (OVCAR-3) was 1.98 µM (inactive), the GI50 (IGROV-1) was 1.71 µM (inactive) and the GI50 (SNB-19) was 1.9 µM (inactive). The GI50 (786-0) was 1.69 µM (inactive), the GI50 (HOP-92) was 2.01 µM (inactive) and the GI50 (A498) was 1.83 µM (inactive). The GI50 (OVCAR-8) was 1.78 µM (inactive), the GI50 (SK-MEL-2) was 1.81 µM (inactive) and the GI50 (SF-268) was 1.83 µM (inactive). The GI50 (NCI/ADR-RES) was 1.47 µM (inactive), the GI50 (HCT-15) was 1.6 µM and the GI50 (CAKI-1) was 2.08 µM (inactive). The GI50 (Malme-3M) was 1.94 µM (inactive), the GI50 (DU-145) was 1.77 µM (inactive) and the GI50 (MDA-MB-231) was 1.75 µM (inactive). For the same compound, the GI50 (MOLT-4) was 1.24 µM (inactive), the GI50 (SK-OV-3) was 2.64 µM (inactive) and the GI50 (Hs-578T) was 1.36 µM (inactive). For the same compound, the GI50 (BT-549) was 2.94 µM (inactive), the GI50 (SK-MEL-28) was 3.4 µM (inactive) and the GI50 (SN12C) was 1.64 µM (inactive). For the same compound, the GI50 (PC-3) was 1.92 µM (inactive), the GI50 (KM12) was 1.58 µM (inactive) and the GI50 (COLO 205) was 1.96 µM (inactive). The GI50 (TK-10) was 1.57 µM (inactive), the GI50 (NCI-H460) was 1.82 µM (inactive) and the GI50 (MDA-N) was 1.67 µM (inactive). The GI50 (HL-60) was 0.453 µM (active), the GI50 (UO-31) was 1.9 µM (inactive) and the GI50 (OVCAR-4) was 1.93 µM (inactive). The GI50 (HOP-62) was 1.97 µM (inactive), the GI50 (SF-539) was 1.9 µM (inactive) and the GI50 (OVCAR-5) was 1.94 µM (inactive).
